Source: US11084826B2, “RSV antiviral pyrazolo- and triazolo-pyrimidine compounds” (Janssen Sciences Ireland Unlimited Company, priority 2015, dated 2021)

Legend:
[1] = Cytotoxicity in HeLa cells, ATP content measured with the ATPlite kit; format: cell-based; settings: human, TOX HELA pCC50
Protocol: (§1) Black 384-well clear-bottom microtiter plates (Corning, Amsterdam, The Netherlands) were filled via acoustic drop ejection using the echo liquid handler (Labcyte, Sunnyvale, Calif.). 200 nL of compound stock solutions (100% DMSO) were transferred to the assay plates. 9 serial 4-fold dilutions of compound were made, creating per quadrant the same compound concentration. The assay was initiated by adding 10 μL of culture medium to each well (RPMI medium without phenol red, 10% FBS-heat inactivated, 0.04% gentamycin (50 mg/mL). All addition steps are done by using a multidrop dispenser (Thermo Scientific, Erembodegem, Belgium). Next, rgRSV224 virus (MOI=1) diluted in culture medium was added to the plates. rgRSV224 virus is an engineered virus that includes an additional GFP gene (Hallak LK, Spillmann D, Collins PL, Peeples Me. Glycosaminoglycan sulfation requirements for respiratory syncytial virus infection; Journal of virology (2000), 74(22), 10508-13) and was in-licensed from the NIH (Bethesda, Md., USA). Finally, 20 μL of a HeLa cell suspension (3,000 cells/well) were plated. Medium, virus- and mock-infected controls were included in each test. The wells contain 0.05% DMSO per volume. Cells were incubated at 37° C. in a 5% CO2 atmosphere. Three days post-virus exposure, viral replication was quantified by measuring GFP expression in the cells by an in house developed MSM laser microscope (Tibotec, Beerse, Belgium). The EC50 was defined as the 50% inhibitory concentration for GFP expression. In parallel, compounds were incubated for three days in a set of white 384-well microtiter plates (Corning) and the cytotoxicity of compounds in HeLa cells was determined by measuring the ATP content of the cells using the ATPlite kit (Perkin Elmer, Zaventem, Belgium) according to the manufacturer's instructions. The CC50 was defined as the 50% concentration for cytotoxicity.

[2] = test system: rgRSV224 virus; assay: Antiviral activity: inhibition of rgRSV224 (GFP-expressing RSV) replication in HeLa cells, GFP expression read-out; format: cell-based, respiratory syncytial virus (RSV); settings: human respiratory syncytial virus, HeLa, read-out: RSV HELA pEC50, rgRSV224 virus (MOI=1) in HeLa cells, GFP read-out (converted)
Protocol: as §1

Structure (SMILES)	melting point	CC50 at 3 days [1]	EC50 [2]
CCc1cc(C(=O)N2CCCCC[C@H]2C)nc2cc(-c3ccc(N(C)c4ccc(C(=O)O)cn4)cc3F)nn12 (racemic) [Compound W20]	132 °C	63100 nM	355 nM
CCc1cc(C(=O)N2CCCCCC2C)nc2cc(-c3ccc4ncccc4c3)nn12 (stereo not shown) [Compound A11]	170 to 175 °C	> 25100 nM	646 nM
CCc1cc(C(=O)N2CCCCCC2C)nc2cc(-c3ccc(NC(=O)CCC(=O)NC)cc3F)nn12 (stereo not shown) [Compound E27]	215 to 220 °C	> 25100 nM	117 nM
CCc1cc(C(=O)N2CCCCCC2C)nc2cc(-c3ccc(NC(=O)Cn4ccnc4)cc3F)nn12 (stereo not shown) [Compound E3]	155 to 160 °C	6460 nM	132 nM
CCc1cc(C(=O)N2CCCCCC2C)nc2cc(-c3ccc4nc(C)ccc4c3)nn12 (stereo not shown) [Compound A12]	195 to 200 °C	> 25100 nM	871 nM
CCc1cc(C(=O)N2CCCCC[C@H]2C)nc2cc(-c3ccc(N4C[C@@H]5CC(C(=O)O)=C[C@@H]5C4)cc3F)nn12 [Compound W12]	252.19 °C	63100 nM	204 nM
C=CCC(=O)Nc1ccc(-c2cc3nc(C(=O)N4CCCCCC4C)cc(CC)n3n2)c(F)c1 (stereo not shown) [Compound E5]	170 to 175 °C	> 25100 nM	138 nM
CCc1cc(C(=O)N2CCCCCC2C)nc2cc(-c3ccc(B(O)O)cc3F)nn12 (stereo not shown) [Compound G1]	195 to 200 °C	> 25100 nM	282 nM
CCc1cc(C(=O)N2CCCCC[C@H]2C)nc2cc(-c3ccc4c(C(=O)O)coc4c3F)nn12 [Compound F40]	213.87 °C	52500 nM	132 nM
CCc1cc(C(=O)N2CCCCCC2C)nc2cc(-c3ccc(C(=O)NCCN(C)C)cc3F)nn12 (stereo not shown) [Compound L2]	178 °C	> 25100 nM	550 nM
CCc1cc(C(=O)N2CCCCCC2C)nc2cc(-c3ccc(NC(=O)NCC4CC4)cc3)nn12 (stereo not shown) [Compound B9]	165 to 170 °C	> 100000 nM	501 nM
CCc1cc(C(=O)N2CCCCCC2C)nc2cc(-c3ccc(C(=O)NC4CC4)cc3F)nn12 (stereo not shown) [Compound L1]	196 °C	> 25100 nM	129 nM
CC1CCCCCN1C(=O)c1cc(N2CCCCC2)n2nc(-c3ccc(NC(=O)NCC4CCCO4)cc3)cc2n1 (stereo not shown) [Compound B11]	168 to 171 °C	> 100000 nM	282 nM
CCc1cc(C(=O)N2CCCCCC2C)nc2cc(-c3ccc(C(=O)NO)cc3F)nn12 (stereo not shown) [Compound L6]	180 °C	20400 nM	148 nM
CCCC(C)N(C)C(=O)c1cc(CC)n2nc(-c3ccc(C(N)=O)cc3)cc2n1 (stereo not shown) [Compound A28]	140 to 145 °C	> 25100 nM	794 nM
CCc1cc(C(=O)N2CCCCCC2C)nc2cc(-c3ccc(NS(C)(=O)=O)cc3F)nn12 (stereo not shown) [Compound D1]	135 to 140 °C	51300 nM	288 nM
CCc1cc(C(=O)N2CCCCCC2C)nc2nc(-c3ccc(C(N)=O)cc3F)nn12 (stereo not shown) [Compound V1]	215 to 220 °C	> 25100 nM	1910 nM
C[C@@H]1CCCCCN1C(=O)c1cc(C2CCC2)n2nc(-c3ccc(C4C[C@H]4C(=O)O)cc3F)cc2n1 (mixture of isomers) [Compound O11]	249.19 °C	47900 nM	30.2 nM
CCc1cc(C(=O)N2CCCCCC2C)nc2cc(-c3ccc(CO)cc3)nn12 (stereo not shown) [Compound A21]	155 to 160 °C	> 100000 nM	891 nM
CCc1cc(C(=O)N2CCCCC[C@H]2C)nc2cc(-c3ccc(-n4cnc(C(=O)O)c4)cc3F)nn12 [Compound W29]	–	> 100000 nM	363 nM

Structure (SMILES)	melting point	CC50 at 3 days [1]	EC50 [2]
CCc1cc(C(=O)N2CCc3ccsc3C2C)nc2cc(-c3ccc(-c4ccc(C(=O)O)cn4)cc3F)nn12 (racemic) [Compound F55]	–	> 100000 nM	120 nM
C[C@@H]1CCCCCN1C(=O)c1cc(C2CC2)n2nc(-c3ccc4c(c3F)OCC(C(=O)O)=C4)cc2n1 [Compound F38]	–	36300 nM	51.3 nM
CCc1cc(C(=O)N2CCCCC[C@H]2C)nc2cc(-c3ccc4ccc(C(=O)O)nc4c3F)nn12 [Compound F45]	–	91200 nM	43.7 nM
CCc1cc(C(=O)N2CCCCC[C@H]2C)nc2cc(-c3ccc(-c4cnc(C(=O)O)c(F)c4)cc3F)nn12 [Compound F19]	–	36300 nM	97.7 nM
C[C@@H]1CCCCCN1C(=O)c1cc(C2CCC2)n2nc(-c3ccc(N4CC[C@H](C(=O)O)C4)cc3F)cc2n1 [Compound W31]	–	49000 nM	12.6 nM
CCc1cc(C(=O)N2CCCCC[C@H]2C)nc2cc(-c3ccc(N(C)[C@H]4C[C@H](C(=O)O)C4)cc3F)nn12 (racemic) [Compound W22]	–	87100 nM	45.7 nM
C[C@@H]1CCCCCN1C(=O)c1cc(C2(C)COC2)n2nc(-c3ccc4c(c3F)OCC(C(=O)O)=C4)cc2n1 (racemic) [Compound F62]	–	> 25100 nM	57.5 nM
C[C@@H]1c2ccccc2CCN1C(=O)c1cc(C2CC2)n2nc(-c3cccc(/C=C/C(=O)O)c3F)cc2n1 [Compound M27]	202.04 °C	–	11.7 nM
C[C@@H]1CCCCCN1C(=O)c1cc(C2CCC2)n2nc(-c3ccc(-c4ccc(C(=O)O)cn4)cc3F)cc2n1 [Compound F32]	–	32400 nM	28.2 nM
CCc1cc(C(=O)N2CCCCC[C@H]2C)nc2cc(-c3ccc(N4CCC[C@H](C(=O)O)C4)cc3F)nn12 [Compound W5]	–	95500 nM	89.1 nM
CCc1cc(C(=O)N2CCCCCC2C)nc2cc(-c3ccc(/C=C(\C)C(=O)O)cc3F)nn12 (stereo not shown) [Compound M13]	–	> 25100 nM	224 nM
CCc1cc(C(=O)N2CCCCC[C@H]2C)nc2cc(-c3ccc(N(C)CC(=O)O)cc3F)nn12 [Compound W19]	–	> 100000 nM	263 nM
CCc1cc(C(=O)N2CCc3ccccc3C2C)nc2cc(-c3ccc(/C=C(\C)C(=O)O)cc3F)nn12 (stereo not shown) [Compound M17]	–	17400 nM	63.1 nM
CCc1cc(C(=O)N2CCn3c(Cl)ccc3C2C)nc2cc(-c3ccc(-c4ccc(C(=O)O)cn4)cc3F)nn12 (racemic) [Compound F56]	–	> 100000 nM	155 nM
CCCCc1nc(Cl)c(-c2cc3nc(C(=O)N4CCCCCC4C)cc(CC)n3n2)[nH]1 (stereo not shown) [Compound A22]	–	> 25100 nM	603 nM
CCc1cc(C(=O)N2CCCCC[C@H]2C)nc2cc(-c3ccc(-c4ccnc(C(=O)O)c4)cc3F)nn12 [Compound F25]	–	13500 nM	43.7 nM
CCc1cc(C(=O)N2CCCCC[C@H]2C)nc2cc(-c3ccc(C4CC5(CC(C(=O)O)C5)C4)cc3F)nn12 (stereo partly shown) [Compound F47]	–	46800 nM	245 nM
CCc1cc(C(=O)N2CCCCC[C@H]2C)nc2cc(-c3ccc([C@H]4CC[C@H](C(=O)O)CC4)cc3F)nn12 [Compound F37]	–	38000 nM	182 nM
CCc1cc(C(=O)N2CCCCC[C@H]2C)nc2cc(-c3ccc(C4C[C@H]4C(=O)O)cc3F)nn12 (single isomer, unassigned) [Compound O2]	–	> 25100 nM	58.9 nM
